Experimental data: patent publication US20030083822A2, “SYSTEMS AND METHODS FOR […] INFORMATICS” (PsychoGenics, Inc., priority 2001, published 2003)

Tested on: mice
Assay: Transition-matrix analysis of behavior of drug-treated mice, coded by human observers (Figure 13)
Type: in vivo
Conditions: average matrix of drug treated mice normalized to control (vehicle) matrix; increase
Experimental: Testing drugs several times and comparing the results can address replication. Significance is illustrated in Figure 13, where exemplary data is shown from an experiment in which mice were treated with one of the indicated drugs ensuing behavior was recorded and later coded by human observers. In the analysis of transition matrices, the average matrix of the drug treated mice was combined with the average matrix of the control mice. The control data was treated as the "population" data as it was expected to have very large numbers from mice treated with same vehicle as more and more experiments that require such vehicle are conducted.
Referring again to Figure 13, the average transition matrix was transformed as a z-score matrix based on the mean and standard error of the control matrix. In doing so, every drug transition (fd,i) subtracted the corresponding control transition (fc,i) and divided by the standard error (sc,i), as in zd,i=((fd,i)-(fc,i))/(sc,i) was obtained. Although this is just one possible way to normalize the data (e.g., student t-scores can also be calculated), it has some intuitive appeal, as the z-scores can now be read as distance from the control in standard-deviation units. Thus, in Figure 13, the first cell of the matrix corresponding to chlordiazepoxide (CDP), can be read as "CDP increased the number of rear-rear transitions more than 30 fold". […]

Structure (SMILES): CNC1=Nc2ccc(Cl)cc2C(c2ccccc2)=[N+]([O-])C1 [CDP, chlordiazepoxide]
- number of rear-rear transitions (first cell of the z-score transition matrix): more than 30 fold
